Common to all, as to type: biochemical
The target in one assay is T1, human HPK1 (MAP4K1) (Homo sapiens, UniProt Q92918).
T1 construct: human HPK1 (aa 1-346); purchased Invitrogen PV6355
T1 sequence (Q92918 1-346): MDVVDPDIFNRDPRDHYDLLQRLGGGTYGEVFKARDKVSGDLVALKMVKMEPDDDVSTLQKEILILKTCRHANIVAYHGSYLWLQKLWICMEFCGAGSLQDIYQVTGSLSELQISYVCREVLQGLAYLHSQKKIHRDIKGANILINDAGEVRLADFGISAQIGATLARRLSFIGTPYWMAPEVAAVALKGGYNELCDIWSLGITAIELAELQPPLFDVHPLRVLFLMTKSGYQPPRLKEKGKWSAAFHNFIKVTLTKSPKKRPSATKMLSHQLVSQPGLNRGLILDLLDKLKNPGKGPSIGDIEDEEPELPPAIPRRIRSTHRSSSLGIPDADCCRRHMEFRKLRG
The assay is described as follows: HPK1 inhibition assay (indirect ELISA). The note with it: GST-HPK1 0.6 nM, 12 μM ATP; read-out: IC50 Range HPK1. As for the experimental part:
Active HPK1 (MAP4K1) was purchased as an N-terminal GST fusion of human HPK1 (aa 1-346) from Invitrogen (cat #PV6355). HPK1 activity was measured using an indirect ELISA detection system. GST-HPK1 (0.6 nM) was incubated in the presence of 12 μM ATP (Sigma cat #A7699), 5 mM MOPS (pH 7.2), 2.5 mM β-glycerol-phosphate, 5 mM MgCl2, 0.4 mM EDTA, 1 mM EGTA, 0.05 mM DTT, in a 96 well microtitre plate pre-coated with 0.5 μg/well bovine myelin basic protein (MBP) (Millipore, cat #13-110). The reaction was allowed to proceed for 30 min, followed by 5 washes of the plate with Wash Buffer (phosphate buffered saline supplemented with 0.2% Tween 20), and incubation for 30 min with a 1:3000 dilution of anti-phospho-threonine rabbit polyclonal antibody (Cell Signaling cat #9381). The plate was washed 5 times with wash buffer, incubated for 30 min in the presence of goat anti-rabbit horse radish peroxidase conjugate (BioRad cat #1721019, 1:3000 concentration), washed an additional 5 times with wash buffer, and incubated in the presence of TMB substrate (Sigma cat #T0440). The colorimetric reaction was allowed to continue for 5 min, followed by addition of stop solution (0.5 N H2SO4), and quantified by detection at 450 nm with a monochromatic plate reader (Molecular Devices M5).
Compound inhibition was determined at either a fixed concentration (10 μM) or at a variable inhibitor concentration (typically 50 μM to 0.1 μM in a 10 point dose response titration). Compounds were pre-incubated in the presence of enzyme for 15 min prior to addition of ATP and the activity remaining quantified using the above described activity assay. The % inhibition of a compound was determined using the following formula; % inhibition=100×(1−(experimental value−background value)/(high activity control−background value)). The IC50 value was determined using a non-linear 4 point logistic curve fit (XLfit4, IDBS) with the formula; (A+(B/(1+((x/C)^D)))), where A=background value, B=range, C=inflection point, D=curve fit parameter.

In a further assay the target is T2, LCK (Homo sapiens, UniProt P06239).
T2 construct: purchased Invitrogen P3043
The assay is described as follows: LCK inhibition, FRET based Z'-LYTE Kinase Assay. The conditions noted are these: 25 nM LCK, 180 μM ATP; read-out: IC50 Range Lck. As for the experimental part:
(§1) FLT3 and LCK compound inhibition were determined using FRET based Z′-LYTE Kinase Assay Kit with Tyrosine 2 peptide as the substrate (Invitrogen cat #PV3191). […] The % inhibition values were determined according to the manufacturer's directions and IC50 values were obtained using a non-linear 4 point logistic curve fit (XLfit4, IDBS).

A further assay has as its target T3, FLT3 (Homo sapiens, UniProt P36888).
T3 construct: purchased Invitrogen PV3182
T3 sequence (P36888 27-993): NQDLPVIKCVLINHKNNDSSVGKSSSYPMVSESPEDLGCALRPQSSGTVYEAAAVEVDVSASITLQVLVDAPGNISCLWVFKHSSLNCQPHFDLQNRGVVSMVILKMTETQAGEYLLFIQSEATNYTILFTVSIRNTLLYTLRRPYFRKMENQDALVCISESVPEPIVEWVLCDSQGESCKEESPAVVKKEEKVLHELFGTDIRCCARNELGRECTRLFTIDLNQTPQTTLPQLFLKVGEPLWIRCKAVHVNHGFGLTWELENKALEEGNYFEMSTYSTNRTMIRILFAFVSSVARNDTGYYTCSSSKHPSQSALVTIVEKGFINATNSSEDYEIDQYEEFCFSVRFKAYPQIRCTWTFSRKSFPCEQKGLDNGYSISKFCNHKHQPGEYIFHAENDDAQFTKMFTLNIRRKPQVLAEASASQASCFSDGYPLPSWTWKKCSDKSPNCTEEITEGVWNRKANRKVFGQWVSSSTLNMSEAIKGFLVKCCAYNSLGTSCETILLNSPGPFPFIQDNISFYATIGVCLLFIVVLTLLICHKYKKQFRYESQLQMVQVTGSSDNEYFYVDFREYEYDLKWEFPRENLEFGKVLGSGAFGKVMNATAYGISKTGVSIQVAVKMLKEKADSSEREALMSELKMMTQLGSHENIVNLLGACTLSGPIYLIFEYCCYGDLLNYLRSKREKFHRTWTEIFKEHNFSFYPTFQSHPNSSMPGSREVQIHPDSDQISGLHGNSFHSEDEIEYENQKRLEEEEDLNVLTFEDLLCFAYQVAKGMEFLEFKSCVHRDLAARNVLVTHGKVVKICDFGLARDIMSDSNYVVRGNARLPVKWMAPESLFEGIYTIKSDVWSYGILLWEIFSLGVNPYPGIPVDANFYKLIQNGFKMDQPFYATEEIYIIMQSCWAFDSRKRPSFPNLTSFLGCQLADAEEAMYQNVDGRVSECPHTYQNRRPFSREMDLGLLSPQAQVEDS
Briefly: FLT3 inhibition, FRET based Z'-LYTE Kinase Assay. The conditions noted are these: 1 nM FLT3, 940 μM ATP; read-out: IC50 Range Flt3. As for the experimental part: as §1

A value given as a limit tells only on which side of the number the result lay.

T2 sequence (P06239 whole entry, species assumed): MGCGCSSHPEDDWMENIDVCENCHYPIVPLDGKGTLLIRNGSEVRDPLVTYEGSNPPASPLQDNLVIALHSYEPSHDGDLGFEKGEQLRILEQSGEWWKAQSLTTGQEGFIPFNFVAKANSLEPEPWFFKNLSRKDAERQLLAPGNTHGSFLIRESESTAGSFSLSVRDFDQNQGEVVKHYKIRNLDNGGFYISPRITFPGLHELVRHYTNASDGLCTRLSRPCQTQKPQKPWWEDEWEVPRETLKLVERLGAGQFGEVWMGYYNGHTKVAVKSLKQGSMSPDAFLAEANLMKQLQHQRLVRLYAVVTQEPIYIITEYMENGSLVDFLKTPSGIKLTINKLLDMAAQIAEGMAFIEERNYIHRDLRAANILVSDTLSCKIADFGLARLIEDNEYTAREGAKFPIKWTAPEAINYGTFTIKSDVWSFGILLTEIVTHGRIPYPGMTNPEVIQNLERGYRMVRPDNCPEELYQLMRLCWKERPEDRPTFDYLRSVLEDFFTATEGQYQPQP

Consider `Cc1cc2[nH]c(=O)c(-c3nc4ccc(N5CCN(C)CC5)cc4[nH]3)c(N)c2s1` [Example A32, 7-amino-2-methyl-6-(6-(4-methylpiperazin-1-yl)-1H-benzo[d]imidazol-2-yl)thieno[3,2-b]pyridin-5(4H)-one], for which the half-maximal inhibitory concentration (IC50) is over 500 nM at human HPK1 (MAP4K1) and at most 50 nM on LCK.
For `C[C@@H]1CN(c2ccc3nc(-c4c(N)c5sccc5[nH]c4=O)[nH]c3c2)C[C@H](C)N1C` [Example A33, 7-amino-6-(6-(3r,5s)-rel-3,4,5-trimethylpiperazin-1-yl)-1H-benzo[d]imidazol-2-yl)thieno[3,2-b]pyridin-5(4H)-one], the results for the IC50 on FLT3, at human HPK1 (MAP4K1) and at LCK were at most 50 nM, at most 50 nM and 50 to 500 nM, respectively.
For the molecule `CN1CCN(c2ccc3nc(-c4c(N[C@@H]5CCOC5)c5cscc5[nH]c4=O)[nH]c3c2)CC1` [Example A71, (R)-3-(6-(4-methylpiperazin-1-yl)-1H-benzo[d]imidazol-2-yl)-4-((tetrahydrofuran-3-yl)amino)thieno[3,4-b]pyridin-2(1H)-one], the concentration for half-maximal inhibition (IC50) on FLT3, on human HPK1 (MAP4K1) and at LCK was at most 50 nM in each case.
In the case of `CN1CCN(c2ccc3nc(-c4c(NCc5ccncc5)c5sccc5[nH]c4=O)[nH]c3c2)CC1` [Example A22, 6-(6-(4-methylpiperazin-1-yl)-1H-benzo[d]imidazol-2-yl)-7-((pyridin-4-ylmethyl)amino)thieno[3,2-b]pyridin-5(4H)-one], the half-maximal inhibitory concentration (IC50) on FLT3 was at most 50 nM; on human HPK1 (MAP4K1), at most 50 nM; at LCK, 50 to 500 nM.
Take `CN1CCN(c2ccc3nc(-c4c(N5CCC(O)CC5)c5sccc5[nH]c4=O)[nH]c3c2)CC1` [Example A50, 7-(4-hydroxypiperidin-1-yl)-6-(6-(4-methylpiperazin-1-yl)-1H-benzo[d]imidazol-2-yl)thieno[3,2-b]pyridin-5(4H)-one]: the half-maximal inhibitory concentration (IC50) at human HPK1 (MAP4K1) and at LCK was over 500 nM in each case.
Consider `CN1CCN(c2ccc3nc(-c4c(N[C@H]5CCCC[C@H]5O)c5cscc5[nH]c4=O)[nH]c3c2)CC1` [Example A70, 4-(((1S,2R)-2-hydroxycyclohexyl)amino)-3-(6-(4-methylpiperazin-1-yl)-1H-benzo[d]imidazol-2-yl)thieno[3,4-b]pyridin-2(1H)-one], for which the IC50 at FLT3 and at LCK was at most 50 nM throughout.
As to `Cc1csc2[nH]c(=O)c(-c3nc4ccc(N5CCN(C)CC5)cc4[nH]3)c(NC3CCOCC3)c12` [Example A20, 3-methyl-5-(6-(4-methylpiperazin-1-yl)-1H-benzo[d]imidazol-2-yl)-4-((tetrahydro-2H-pyran-4-yl)amino)thieno[2,3-b]pyridin-6(7H)-one], the 50% inhibitory concentration (IC50) at human HPK1 (MAP4K1) was over 500 nM.
Still for that read-out and setting: the value for `CN1CCN(c2ccc3nc(-c4c(NCc5ccccn5)c5cscc5[nH]c4=O)[nH]c3c2)CC1` [Example A28, 3-(6-(4-methylpiperazin-1-yl)-1H-benzo[d]imidazol-2-yl)-4-((pyridin-2-ylmethyl)amino)thieno[3,4-b]pyridin-2(1H)-one] was at most 50 nM.
As to `CN1CCN(C(=O)c2ccc3[nH]c(-c4c(N)c5ccsc5[nH]c4=O)nc3c2)CC1` [Example A60, 4-amino-5-(5-(4-methylpiperazine-1-carbonyl)-1H-benzo[d]imidazol-2-yl)thieno[2,3-b]-pyridin-6(7H)-one], the 50% inhibitory concentration (IC50) on human HPK1 (MAP4K1) and at LCK was 50 to 500 nM throughout.
Consider `CN1CCN(c2ccc3nc(-c4c(O)c5sccc5[nH]c4=O)[nH]c3c2)CC1` [Example A29, 7-hydroxy-6-(6-(4-methylpiperazin-1-yl)-1H-benzo[d]imidazol-2-yl)thieno[3,2-b]pyridin-5(4H)-one], for which the values for the IC50 on human HPK1 (MAP4K1) and on LCK were at most 50 nM and 50 to 500 nM, respectively.
Turning to `C[C@@H]1CN(c2ccc3nc(-c4c(N[C@H]5CCCC[C@H]5O)c5ccsc5[nH]c4=O)[nH]c3c2)C[C@H](C)O1` [Example A73], at human HPK1 (MAP4K1), the IC50 was in the range of 50 to 500 nM.
Consider `CN1CCN(c2ccc3nc(-c4c(N[C@@H]5CCCOC5)c5ccsc5[nH]c4=O)[nH]c3c2)CC1` [Example A77, (R)-5-(6-(4-methylpiperazin-1-yl)-1H-benzo[d]imidazol-2-yl)-4-((tetrahydro-2H-pyran-3-yl)amino)thieno[2,3-b]pyridin-6(7H)-one], for which the IC50 at human HPK1 (MAP4K1) is at most 50 nM.
Same read-out and setting: the result for `CN1CCN(c2ccc3nc(-c4c(N[C@H]5C[C@@H](O)C5)c5ccsc5[nH]c4=O)[nH]c3c2)CC1` [Example A12, 4-(((1s,3s)-3-hydroxycyclobutyl)amino)-5-(6-(4-methylpiperazin-1-yl)-1H-benzo[d]imidazol-2-yl)thieno[2,3-b]pyridin-6(7H)-one] reads at most 50 nM.
`CN1CCN(c2ccc3nc(-c4c(N)c5ccsc5[nH]c4=O)[nH]c3c2F)CC1` [Example A69, 4-amino-5-(7-fluoro-6-(4-methylpiperazin-1-yl)-1H-benzo[d]imidazol-2-yl)thieno[2,3-b]pyridin-6(7H)-one]: the concentration for half-maximal inhibition (IC50) was at most 50 nM at FLT3 and 50 to 500 nM at LCK.
Regarding `C[C@@H]1CN(c2ccc3nc(-c4c(N)c5ccsc5[nH]c4=O)[nH]c3c2)C[C@H](C)O1` [Example A76, 4-amino-5-(6-((2S,6R)-2,6-dimethylmorpholino)-1H-benzo[d]imidazol-2-yl)thieno[2,3-b]pyridin-6(7H)-one], the IC50 at human HPK1 (MAP4K1) was at most 50 nM.
As for `COc1csc2[nH]c(=O)c(-c3nc4ccc(N5CCN(C)CC5)cc4[nH]3)c(N)c12` [Example A5, 4-amino-3-methoxy-5-(6-(4-methylpiperazin-1-yl)-1H-benzo[d]imidazol-2-yl)thieno[2,3-b]pyridin-6(7H)-one], the IC50 on human HPK1 (MAP4K1) and at LCK was over 500 nM each time.
Regarding `CN1CCN(c2ccc3nc(-c4c(N5CCOCC5)c5sccc5[nH]c4=O)[nH]c3c2)CC1` [Example A49, 6-(6-(4-methylpiperazin-1-yl)-1H-benzo[d]imidazol-2-yl)-7-morpholinothieno[3,2-b]pyridin-5(4H)-one], at human HPK1 (MAP4K1), the IC50 is over 500 nM.
For `CN1CCN(c2ccc3nc(-c4c(N[C@H]5CCOC5)c5ccsc5[nH]c4=O)[nH]c3c2)CC1` [Example A11, (S)-5-(6-(4-methylpiperazin-1-yl)-1H-benzo[d]imidazol-2-yl)-4-((tetrahydrofuran-3-yl)amino)thieno[2,3-b]pyridin-6(7H)-one], the IC50 on human HPK1 (MAP4K1) was at most 50 nM.

For orientation: IC50 means the midpoint of a concentration-inhibition curve.
